Like-named read-outs stand apart in the source and are kept apart here.

As usually defined, the IC50 is the midpoint of a concentration-inhibition curve.

What all share (type): cell-based
The test system of experiment [1] is IL-4. Put plainly: Cytokine assay: IL-4 release from PHA-L stimulated human PBMCs. Conditions: read-out: IL4 IC50. How it is done: (§1) Cytokine inhibitory activity is determined by measuring the effect of test agent on the release of the cytokines IL-4, IL-13 and IFNγ from human peripheral blood mononuclear cells (PBMCs) stimulated with the T-cell mitogen phytohemagglutinin-L (PHA-L). At the time of assay, human PBMCs (Astarte Biologics) are removed from cryopreservation, thawed quickly at 37° C., diluted in assay medium (RPMI-Gibco 1640 medium, 10% heat inactivated fetal bovine serum (HIFBS), 2 mM glutamine and 10 mM HEPES pH 7.4) and then centrifuged at 250×g for 5 minutes. The resulting cell pellet is re-suspended in assay medium to a concentration of approximately 5×10^6 cells/mL and 50 μL of this cell suspension (approximately 250,000 cells) is added to each well of a 384-well cell culture microtiter plate (Perkin Elmer). Varying concentrations of test compound are then diluted in assay medium and added to the assay plate wells in a volume of 25 μL. After −10 minutes at room temperature (21° C.) the cells are stimulated by the addition of 25 μL of PHA-L (14 μg/mL; Millipore) and the assay plate is placed in an incubator at 37° C. in a humidified environment in 5% carbon dioxide. The final assay conditions are approximately 250,000 human PBMCs per well in assay medium containing 3.5 μg/mL PHA-L and the indicated final concentration of test compound (approximately 10 μM to […] by 4-fold dilution). The final concentration of DMSO in the assay is approximately 0.25%. After 48 hours, the assay plate is removed from the incubator and centrifuged at 250×g for 5 minutes. A portion of the resulting cell supernatant is then used to determine the amount of IL-4, IL-13 and IFNγ in each well. Cytokine measurements are made using human IL-4, IL-13 or IFNγ HTRF assay kits (CisBio) following the manufacturer's assay protocol. The concentrations and resulting effect values for tested compounds are plotted and the concentration of compound required for 50% effect (IC50) is determined with a four-parameter logistic dose response equation (E-WorkBook, ID Business Solutions Ltd.) and shown in Table 17.

The subject of experiment [2] is IFNγ. Put plainly: Cytokine assay: IFNγ release from PHA-L stimulated human PBMCs. How it is done:
as §1

The test system of experiment [3] is IL-13. Put plainly: Cytokine assay: IL-13 release from PHA-L stimulated human PBMCs. The settings on record: read-out: IL13 IC50. How it is done:
as §1

For the molecule `CCOc1cc(-c2cncc(C3COB(O)C3)c2)c(C)cc1OC` (single isomer, unassigned) [Example 70, 4-(5-(5-ethoxy-4-methoxy-2-methylphenyl)pyridin-3-yl)-1,2-oxaborolan-2-ol], the IC50 in experiment [1] came to 4.31 nM; in experiment [2], 2.85 nM; in experiment [3], 890 nM.
Turning to `CCOc1cc(-c2cncc(C3COB(O)C3)c2)c(C)cc1OC` (single isomer, unassigned) [Example 71, 4-(5-(5-ethoxy-4-methoxy-2-methylphenyl)pyridin-3-yl)-1,2-oxaborolan-2-ol], the figures for the IC50 in experiment [1], in experiment [2] and in experiment [3] were 42 nM, 18.8 nM and 1910 nM, respectively.
Turning to `CCOc1ccc(-c2cncc(C3COB(O)C3)c2)cc1OCC` (single isomer, unassigned) [Example 97, 4-(5-(3,4-diethoxyphenyl)pyridin-3-yl)-1,2-oxaborolan-2-ol], the IC50 in experiment [1] came to 34 nM; in experiment [2] (Homo sapiens, PBMC) it was 2.81 nM; in experiment [3], 465 nM.
`CSc1ccc(-c2cncc(C3COB(O)C3)c2)cc1OC1CCCC1` (single isomer, unassigned) [Example 100, 4-(5-(3-(cyclopentyloxy)-4-(methylthio)phenyl)pyridin-3-yl)-1,2-oxaborolan-2-ol]: the IC50 in experiment [1] (Homo sapiens, PBMC) was found to be 32.7 nM; in experiment [2] it was 4.32 nM; in experiment [3] it was 472 nM.
As for `CSc1ccc(-c2cncc(C3COB(O)C3)c2)cc1OC1CCCC1` (single isomer, unassigned) [Example 101, 4-(5-(3-(cyclopentyloxy)-4-(methylthio)phenyl)pyridin-3-yl)-1,2-oxaborolan-2-ol], the IC50 was 26 nM in experiment [1], 13.3 nM in experiment [2] and 2650 nM in experiment [3].
With `CCCOc1cc(-c2nc(COC)cc(C3COB(O)C3)n2)ccc1OC` (single isomer, unassigned) [Example 103, 4-(2-(4-methoxy-3-propoxyphenyl)-6-(methoxymethyl)pyrimidin-4-yl)-1,2-oxaborolan-2-ol], the concentration for half-maximal inhibition (IC50) stood at 0.83 nM in experiment [1] (Homo sapiens, PBMC); 0.76 nM in experiment [2] (Homo sapiens, PBMC); 487 nM in experiment [3] (Homo sapiens, PBMC).
As to `CCCOc1cc(-c2cncc(C3COB(O)C3)c2)ccc1SC` (single isomer, unassigned) [Example 114, 4-(5-(4-(methylthio)-3-propoxyphenyl)pyridin-3-yl)-1,2-oxaborolan-2-ol], the IC50 was 32.7 nM in experiment [1] (Homo sapiens, PBMC); 21.5 nM in experiment [2] (Homo sapiens, PBMC); 2910 nM in experiment [3] (Homo sapiens, PBMC).
For the molecule `CCCOc1cc(-c2cc(C3COB(O)C3)cnn2)ccc1OC` (single isomer, unassigned) [Example 136, 4-(6-(4-methoxy-3-propoxyphenyl)pyridazin-4-yl)-1,2-oxaborolan-2-ol], the IC50 in experiment [1] (Homo sapiens, PBMC) is 11.7 nM; in experiment [2] (Homo sapiens, PBMC) it was 2.43 nM; in experiment [3] (Homo sapiens, PBMC), 670 nM.
As to `CCOc1cc(-c2cncc(C3COB(O)C3)c2)cc(Cl)c1OC` (stereo not drawn) [Example 45, 4-(5-(3-chloro-5-ethoxy-4-methoxyphenyl)pyridin-3-yl)-1,2-oxaborolan-2-ol], the IC50 in experiment [1] (Homo sapiens, PBMC) stood at 12.4 nM; in experiment [2] (Homo sapiens, PBMC) it was 3.88 nM; in experiment [3] (Homo sapiens, PBMC), 450 nM.
As for `CCCOc1cc(-c2cncc(C3COB(O)C3)c2)c(F)cc1OC` (stereo not drawn) [Example 49, 4-(5-(2-fluoro-4-methoxy-5-propoxyphenyl)pyridin-3-yl)-1,2-oxaborolan-2-ol], the IC50 was 4.4 nM in experiment [1] (Homo sapiens, PBMC); 3.21 nM in experiment [2] (Homo sapiens, PBMC); 166 nM in experiment [3] (Homo sapiens, PBMC).
In the case of `CCCOc1cc(-c2cncc(C3COB(O)C3)c2)ccc1OC(F)F` (stereo not drawn) [Example 50, 4-(5-(4-(difluoromethoxy)-3-propoxyphenyl)pyridin-3-yl)-1,2-oxaborolan-2-ol], the IC50 in experiment [1] (Homo sapiens, PBMC) was determined as 1.04 nM; in experiment [2] (Homo sapiens, PBMC) it was 1.52 nM; in experiment [3] (Homo sapiens, PBMC), 234 nM.
As for `CCCOc1cc(-c2cc(CO)cc(C3COB(O)C3)n2)ccc1OC` (stereo not drawn) [Example 64, 4-(4-(hydroxymethyl)-6-(4-methoxy-3-propoxphenyl)pyridin-2-yl)-1,2-oxaborolan-2-ol], the IC50 in experiment [1] (Homo sapiens, PBMC) was 8.04 nM; in experiment [2] (Homo sapiens, PBMC), 4.44 nM; in experiment [3] (Homo sapiens, PBMC) it was 325 nM.
For `COc1ccc(-c2cccc(C3COB(O)C3)n2)cc1OC1CCCC1` (stereo not drawn) [Example 65, 4-(6-(3-(cyclopentyloxy)-4-methoxyphenyl)pyridin-2-yl)-1,2-oxaborolan-2-ol], in that order: 186 nM, 5.34 nM and 814 nM.
With `CCCOc1c(OC)ccc(-c2cncc(C3COB(O)C3)c2)c1F` (stereo not drawn) [Example 82, 4-(5-(2-fluoro-4-methoxy-3-propoxphenyl)pyridin-3-yl)-1,2-oxaborolan-2-ol], the IC50 in experiment [1] stood at 7.14 nM; in experiment [2], 1.07 nM; in experiment [3], 426 nM.
Take `CCCOc1cc(-c2nc(C(C)O)cc(C3COB(O)C3)n2)ccc1OC` (stereo not drawn) [Example 83, 4-(6-(1-hydroxyethyl)-2-(4-methoxy-3-propoxyphenyl)pyrimidin-4-yl)-1,2-oxaborolan-2-ol]: the IC50 in experiment [1] (Homo sapiens, PBMC) was determined as 9.42 nM; in experiment [2] (Homo sapiens, PBMC), 4.73 nM; in experiment [3] (Homo sapiens, PBMC) it was 439 nM.
In the case of `CCCOc1cc(-c2nc(COC)cc(C3COB(O)C3)n2)ccc1OC` (stereo not drawn) [Example 102, 4-(2-(4-methoxy-3-propoxyphenyl)-6-(methoxymethyl)pyrimidin-4-yl)-1,2-oxaborolan-2-ol], the IC50 in experiment [1] (Homo sapiens, PBMC) was found to be 2.07 nM; in experiment [2] (Homo sapiens, PBMC) it was 3.01 nM; in experiment [3] (Homo sapiens, PBMC), 1240 nM.
For `COc1ccc(-c2cncc(C3COB(O)C3)c2)c(F)c1OC` (stereo not drawn) [Example 108, 4-(5-(2-fluoro-3,4-dimethoxyphenyl)pyridin-3-yl)-1,2-oxaborolan-2-ol], the results for the IC50 in experiment [1], in experiment [2] and in experiment [3] were 22.1 nM, 4.35 nM and 493 nM, respectively.
For `CCCOc1cc(-c2cncc(C3COB(O)C3)c2)ccc1SC` (stereo not drawn) [Example 113, 4-(5-(4-(methylthio)-3-propoxyphenyl)pyridin-3-yl)-1,2-oxaborolan-2-ol], the IC50 was 36.1 nM in experiment [1], 3.81 nM in experiment [2] and 497 nM in experiment [3].
Take `CCCOc1c(OC)ccc(-c2cccc(C3COB(O)C3)c2)c1F` (stereo not drawn) [Example 116, 4-(2′-fluoro-4′-methoxy-3′-propoxy-[1,1′-biphenyl]-3-yl)-1,2-oxaborolan-2-ol]: the IC50 in experiment [1] (Homo sapiens, PBMC) is 42 nM; in experiment [2] (Homo sapiens, PBMC), 2.45 nM; in experiment [3] (Homo sapiens, PBMC) it was 508 nM.
Regarding `COc1cnc(-c2cccc(C3COB(O)C3)c2)nc1OC` (stereo not drawn) [Example 122, 4-(3-(4,5-dimethoxypyrimidin-2-yl)phenyl)-1,2-oxaborolan-2-ol], the IC50 in experiment [1] (Homo sapiens, PBMC) was found to be 362 nM; in experiment [2] (Homo sapiens, PBMC) it was 7.49 nM; in experiment [3] (Homo sapiens, PBMC), 567 nM.
Consider `CCCOc1cc(-c2cccc(C3COB(O)C3)n2)ccc1OC` (stereo not drawn) [Example 127, 4-(6-(4-methoxy-3-propoxyphenyl)pyridin-2-yl)-1,2-oxaborolan-2-ol], for which the IC50 in experiment [1] (Homo sapiens, PBMC) was determined as 62.6 nM; in experiment [2] (Homo sapiens, PBMC) it was 2.84 nM; in experiment [3] (Homo sapiens, PBMC) it was 585 nM.
Regarding `COc1ccc(-c2nc(C3COB(O)C3)ccc2F)cc1OC1CCCC1` (stereo not drawn) [Example 131, 4-(6-(3-(cyclopentyloxy)-4-methoxyphenyl)-5-fluoropyridin-2-yl)-1,2-oxaborolan-2-ol], the IC50 is 11.6 nM in experiment [1] (Homo sapiens, PBMC); 5.7 nM in experiment [2] (Homo sapiens, PBMC); 591 nM in experiment [3] (Homo sapiens, PBMC).
For `CCCOc1cc(-c2cc(C3COB(O)C3)cnn2)ccc1OC` (stereo not drawn) [Example 137], in that order: 37.2 nM, 2.52 nM and 1090 nM.
`CCOc1cc(-c2cncc(C3COB(O)C3)c2)ccc1SC` (stereo not drawn) [Example 144, 4-(5-(3-ethoxy-4-(methylthio)phenyl)pyridin-3-yl)-1,2-oxaborolan-2-ol]: the IC50 in experiment [1] (Homo sapiens, PBMC) came out at 83.9 nM; in experiment [2] (Homo sapiens, PBMC) it was 5.02 nM; in experiment [3] (Homo sapiens, PBMC) it was 706 nM.
Regarding `COc1ccc(-c2cccc(C3COB(O)C3)c2)c(C#N)c1OC` (stereo not drawn) [Example 177, 3′-(2-hydroxy-1,2-oxaborolan-4-yl)-3,4-dimethoxy-[1,1′-biphenyl]-2-carbonitrile], the IC50 in experiment [1] (Homo sapiens, PBMC) was 155 nM; in experiment [2] (Homo sapiens, PBMC) it was 8.49 nM; in experiment [3] (Homo sapiens, PBMC), 1220 nM.
`COc1ccc(-c2cccc(C3COB(O)C3)c2)cc1OCC(C)C` (stereo not drawn) [Example 183, 4-(3′-isobutoxy-4′-methoxy-[1,1′-biphenyl]-3-yl)-1,2-oxaborolan-2-ol]: the IC50 in experiment [1] (Homo sapiens, PBMC) was 102 nM; in experiment [2] (Homo sapiens, PBMC), 6.4 nM; in experiment [3] (Homo sapiens, PBMC), 1370 nM.
Take `CCCOc1cc(-c2nc(OCCO)cc(C3COB(O)C3)n2)ccc1OC` (stereo not drawn) [Example 195, 4-(6-(2-hydroxyethoxy)-2-(4-methoxy-3-propoxyphenyl)pyrimidin-4-yl)-1,2-oxaborolan-2-ol]: the IC50 in experiment [1] (Homo sapiens, PBMC) was 0.36 nM; in experiment [2] (Homo sapiens, PBMC) it was 0.33 nM; in experiment [3] (Homo sapiens, PBMC) it was 2190 nM.

These data come from patent US11559538B2, “Substituted 1,2-oxaborolan-2-ols as PDE4 inhibitors” (Pfizer Inc., priority 2018, dated 2023).
